From paper PMC6855212, “Antibacterial activity of synthetic 1,3‐bis(aryloxy)propan‐2‐amines against Gram‐positive bacteria” (MicrobiologyOpen, 2019)
Converted amounts (≈) assume the structure as drawn. “And” between values parts separate entries of the source, which are not always exact repeats. Equal entries are not always repeated. Where two headings read alike, the source gives them in different places.

Columns and labels:
MRSA Strain 5749 [1] = experiment: MBC, plating of wells without growth; assay type: cell-based; conditions: Staphylococcus aureus
Experimental: (§1) After incubation at 35°C for 24 hr, the colonies were counted and the percentage of inhibition was calculated. MBC is defined as the lowest compound's concentration that inhibits at least 99.9% of the bacterial cell count compared to nontreated viability control (Clinical and Laboratory Standards Institute, 1999).

MRSA Strain 6613 [2] = experiment: MBC, plating of wells without growth; assay type: cell-based; conditions: Staphylococcus aureus
Experimental: as §1

MRSA Strain 6100 [3] = experiment: MBC, plating of wells without growth; assay type: cell-based; conditions: Staphylococcus aureus
Experimental: as §1

MRSA Strain 5912 [4] = experiment: MBC, plating of wells without growth; assay type: cell-based; conditions: Staphylococcus aureus
Experimental: as §1

S. pyogenes ATCC 19615 = experiment: MBC, plating of wells without growth; assay type: cell-based; conditions: Streptococcus pyogenes, ATCC19615; at least 99.9% inhibition of cell count
Experimental: as §1

MRSA Strain 6154 [5] = experiment: MBC, plating of wells without growth; assay type: cell-based; conditions: Staphylococcus aureus
Experimental: as §1

S. aureus ATCC 29212 = experiment: MBC, plating of wells without growth; assay type: cell-based; conditions: Staphylococcus aureus, ATCC29212; at least 99.9% inhibition of cell count
Experimental: as §1

[6] = test system: Gram‐positive bacteria (E. faecalis, S. aureus and S. pyogenes); experiment: MIC, broth microdilution, Gram‐positive bacteria taken together; assay type: cell-based; conditions: Staphylococcus aureus; over different bacterial strains, including MRSA where stated; read-out: MIC against Gram‐positive bacteria, summary
Experimental: (§2) The antibacterial activity of the compounds was evaluated using the broth microdilution method in 96‐well microplates according to the Clinical and Laboratory Standards Institute protocol (CLSI, 2017). First, synthetic compounds were diluted in Mueller Hinton broth (MHB; Oxoid, Thermo Scientific, UK) to concentrations ranging from 20 to 2.5 μg/ml. The same volume of a bacterial suspension containing 10^5 CFU/ml was added to each of the previous solutions, resulting in final compound concentrations from 10 to 1.25 μg/ml. […] All conditions were tested in triplicate and the results shown are representative of three independent assays.

[7] = Cytotoxicity, MTT reduction assay; assay type: cell-based; conditions: African green monkey, 48 hr
Experimental: The cytotoxicity of active compounds to mammalian cells was assessed using the MTT reduction assay (Mosmann, 1983). Vero and BSC‐40 cells were seeded in 96‐well plates (8 × 10^4 cells per well) and incubated at 37°C and 5% CO2 atmosphere. After 24 hr of incubation, 200 μL of fresh medium containing a serial dilution of compounds (10–1.25 μg/ml) were added to the plates. After 48 hr of incubation in the same conditions, 100 μL of MTT solution in MEM or DMEM (5 mg/ml) was added to each well and incubated for 3 hr at 37°C and 5% CO2 atmosphere. The medium was removed and 100 μL of DMSO was used to solubilize formazan crystals. Absorbance at 570 nm of each well was read using a spectrophotometer (VersaMax, Molecular Devices).

MRSA strains = experiment: MIC, broth microdilution, MRSA strains taken together; assay type: cell-based; conditions: Staphylococcus aureus; over the six MRSA strains (CPD18: four out of six); read-out: MIC against MRSA strains
Experimental: as §2

MRSA Strain 5749 [8] = experiment: MIC, broth microdilution; assay type: cell-based; conditions: Staphylococcus aureus, read-out: MIC MRSA Strain 5749
Experimental: as §2

[9] = test system: Streptococcus pyogenes ATCC 19615; experiment: MIC, broth microdilution; assay type: cell-based; conditions: for MIC: Streptococcus pyogenes, ATCC19615
Experimental: as §2

MRSA Strain 6613 [10] = experiment: MIC, broth microdilution; assay type: cell-based; conditions: Staphylococcus aureus, read-out: MIC MRSA Strain 6613
Experimental: as §2

[11] = test system: Enterococcus faecalis ATCC 29213; experiment: MIC, broth microdilution; assay type: cell-based
Experimental: as §2

MRSA Strain 6100 [12] = experiment: MIC, broth microdilution; assay type: cell-based; conditions: Staphylococcus aureus, read-out: MIC MRSA Strain 6100
Experimental: as §2

MRSA Strain 5912 [13] = experiment: MIC, broth microdilution; assay type: cell-based; conditions: Staphylococcus aureus, read-out: MIC MRSA Strain 5912
Experimental: as §2

[14] = test system: Staphylococcus aureus ATCC 29212; experiment: MIC, broth microdilution; assay type: cell-based; conditions: for MIC: Staphylococcus aureus, ATCC29212
Experimental: as §2

MRSA Strain 6154 [15] = experiment: MIC, broth microdilution; assay type: cell-based; conditions: Staphylococcus aureus, read-out: MIC MRSA Strain 6154
Experimental: as §2

MRSA = test system: MRSA; set-up: method as in Baltch, Ritz, Bopp, Michelsen, & Smith, 2007; conditions: antimicrobials used in the clinic; ref Baltch, Ritz, Bopp, Michelsen, & Smith, 2007; cited from earlier work
S. aureus = test system: S. aureus; set-up: method as in CLSI, 2017; conditions: antimicrobials in clinical use; ref CLSI, 2017; cited from earlier work
MRSA ATCC 43300 = experiment: MIC, broth microdilution; assay type: cell-based; conditions: Staphylococcus aureus, read-out: MIC MRSA ATCC 43300
Experimental: as §2

E. faecalis = test system: E. faecalis; set-up: method as in CLSI, 2017; conditions: antimicrobials in clinical use; ref CLSI, 2017; cited from earlier work
[16] = 24 hr, 35°C, read-out: MIC Streptococcus pyogenes ATCC 19615
[17] = 24 hr, 35°C, read-out: MIC Staphylococcus aureus ATCC 29212

NC(COc1ccc2ccccc2c1)COc1ccc2ccccc2c1 [CPD21]
MBC (MRSA Strain 5749 [1]): 26.3 µM (≈ 9.04 µg/mL)
MBC (MRSA Strain 6613 [2]): 26.3 µM (≈ 9.04 µg/mL)
MBC (MRSA Strain 6100 [3]): 26.3 µM (≈ 9.04 µg/mL)
MBC (MRSA Strain 5912 [4]): 13.2 µM (≈ 4.52 µg/mL)
MBC (S. pyogenes ATCC 19615): 26.3 µM (≈ 9.04 µg/mL)
MBC (MRSA Strain 6154 [5]): 26.3 µM (≈ 9.04 µg/mL)
MBC (S. aureus ATCC 29212): 26.3 µM (≈ 9.04 µg/mL)
MIC [6]: 10 µg/mL and 26.3 µM
CC50 at 48 h ([7]; BSC-40 cells, BSC‐40, MTT, read-out: CC50): 5.06 ± 1.13 µg/mL
CC50 at 48 h ([7]; BSC-40 cells, BSC‐40, MTT, read-out: CC50 ± SD): 13.3 ± 2.97 µM
CC50 at 48 h ([7]; Vero cells, MTT, read-out: CC50 ± SD): 11.3 ± 2.58 µM
MIC (MRSA strains): 5 µg/mL to 10 µg/mL and 13.2 µM to 26.3 µM
MIC (MRSA Strain 5749 [8]; clinical strain): 26.3 µM (≈ 9.04 µg/mL)
MIC [9, 16]: 26.3 µM
MIC ([9]; read-out: MIC against S. pyogenes): 10 µg/mL
Antibacterial activity in initial screening, S. pyogenes ([9]; concentration of 10 μg/ml): showed activity
MIC (MRSA Strain 6613 [10]; clinical strain): 26.3 µM (≈ 9.04 µg/mL)
Antibacterial activity in initial screening, E. faecalis ([11]; concentration of 10 μg/ml): not observed
MIC (MRSA Strain 6100 [12]; clinical strain, — = no activity up to 10 μg/ml): 26.3 µM (≈ 9.04 µg/mL)
MIC (MRSA Strain 5912 [13]; clinical strain): 13.2 µM (≈ 4.52 µg/mL)
MIC [14, 17]: 26.3 µM
MIC ([14]; read-out: MIC against S. aureus): 10 µg/mL
Antibacterial activity in initial screening, S. aureus ([14]; concentration of 10 μg/ml): showed activity
MIC (MRSA Strain 6154 [15]; clinical strain): 26.3 µM (≈ 9.04 µg/mL)

OC(COc1ccc(Cl)c(Cl)c1)COc1ccc(Cl)c(Cl)c1 [CPD29, 1,3‐Bis(3,4‐dichlorophenoxy)propan‐2‐ol]
melting point: 103.4 to 105.7 °C

CS(=O)(=O)OC(COc1ccc(Cl)c(Cl)c1)COc1ccc(Cl)c(Cl)c1 [CPD30, 1,3‐Bis(3,4‐dichlorophenoxy)propan‐2‐yl methanesulfonate]
melting point: 83.7 to 84.4 °C

[N-]=[N+]=NC(COc1ccc(Cl)c(Cl)c1)COc1ccc(Cl)c(Cl)c1 [CPD31, 1,3‐Bis(3,4‐dichlorophenoxy)propan‐2‐yl azide]
melting point: 95.6 to 96.3 °C

Clc1ccc(OCC(COc2ccc(Cl)cc2)N2CCOCC2)cc1 [CPD34, 4‐(1,3‐Bis(4‐chlorophenoxy)propan‐2‐yl)morpholine]
melting point: 62.6 to 64.8 °C

Cc1ccc(S(=O)(=O)OC(COc2ccc(Cl)cc2)COc2ccc(Cl)cc2)cc1 [CPD39, 1,3‐bis(4‐chlorophenoxy)propan‐2‐yl 4‐methylbenzenesulfonate]
melting point: 145.3 to 147.2 °C

CC1(C)S[C@@H]2[C@H](NC(=O)Cc3ccccc3)C(=O)N2[C@H]1C(=O)O [Penicillin G, reference compound]
MIC [9, 16]: 0.24 µM
MIC ([11]; Enterococcus faecalis, ATCC29213, 24 hr, 35°C, — = no activity up to 10 μg/ml, read-out: MIC Enterococcus faecalis ATCC 29213): 5.98 µM (≈ 2 µg/mL)
MIC [14, 17]: 0.06 µM

CN[C@H](CC(C)C)C(=O)N[C@H]1C(=O)N[C@@H](CC(N)=O)C(=O)N[C@H]2C(=O)N[C@H]3C(=O)N[C@H](C(=O)N[C@H](C(=O)O)c4cc(O)cc(O)c4-c4cc3ccc4O)[C@H](O)c3ccc(c(Cl)c3)Oc3cc2cc(c3O[C@@H]2O[C@H](CO)[C@@H](O)[C@H](O)[C@H]2O[C@H]2C[C@](C)(N)[C@H](O)[C@H](C)O2)Oc2ccc(cc2Cl)[C@H]1O [Vancomycin, reference compound]
MIC MRSA (MRSA): 2 µg/mL (≈ 1.38 µM)
MIC S. aureus (S. aureus): 0.5 to 2 µg/mL
MIC (MRSA Strain 5749 [8]): 1.38 µM (≈ 2 µg/mL)
MIC (MRSA Strain 6613 [10]): 1.38 µM (≈ 2 µg/mL)
MIC (MRSA ATCC 43300): 1.38 µM (≈ 2 µg/mL)
MIC (MRSA Strain 6100 [12]): 1.38 µM (≈ 2 µg/mL)
MIC (MRSA Strain 5912 [13]): 1.38 µM (≈ 2 µg/mL)
MIC (MRSA Strain 6154 [15]): 1.38 µM (≈ 2 µg/mL)
MIC E. faecalis (E. faecalis): 1 to 4 µg/mL

NCC[C@H](O)C(=O)N[C@@H]1C[C@H](N)[C@@H](O[C@H]2O[C@H](CN)[C@@H](O)[C@H](O)[C@H]2O)[C@H](O)[C@H]1O[C@H]1O[C@H](CO)[C@@H](O)[C@H](N)[C@H]1O [amikacin]
MIC S. aureus (S. aureus): 1 to 4 µg/mL
MIC E. faecalis (E. faecalis): 64 to 256 µg/mL

CC1(C)S[C@@H]2[C@H](NC(=O)C(C(=O)O)c3ccccc3)C(=O)N2[C@H]1C(=O)O (stereo partly shown) [carbenicillin]
MIC S. aureus (S. aureus): 2 to 8 µg/mL
MIC E. faecalis (E. faecalis): 16 to 64 µg/mL

CC(C)(O/N=C(\C(=O)N[C@@H]1C(=O)N2C(C(=O)[O-])=C(C[n+]3ccccc3)CS[C@H]12)c1csc(N)n1)C(=O)O [ceftazidime]
MIC S. aureus (S. aureus): 4 to 16 µg/mL

O=C(N[C@H](CO)[C@H](O)c1ccc([N+](=O)[O-])cc1)C(Cl)Cl [chloramphenicol]
MIC S. aureus (S. aureus): 2 to 16 µg/mL
MIC E. faecalis (E. faecalis): 4 to 16 µg/mL

CCCCCCCCCC(=O)N[C@@H](Cc1c[nH]c2ccccc12)C(=O)N[C@H](CC(N)=O)C(=O)N[C@@H](CC(=O)O)C(=O)N[C@@H]1C(=O)NCC(=O)N[C@@H](CCCN)C(=O)N[C@@H](CC(=O)O)C(=O)N[C@H](C)C(=O)N[C@@H](CC(=O)O)C(=O)NCC(=O)N[C@H](CO)C(=O)N[C@@H]([C@H](C)CC(=O)O)C(=O)N[C@@H](CC(=O)c2ccccc2N)C(=O)O[C@@H]1C [daptomycin]
MIC MRSA (MRSA): 0.5 µg/mL (≈ 0.309 µM)

CNC(C)C1CCC(N)C(OC2C(N)CC(N)C(OC3OCC(C)(O)C(NC)C3O)C2O)O1 (stereo not shown) [gentamicin]
MIC MRSA (MRSA): 128 µg/mL (≈ 268 µM)

NC[C@H]1O[C@H](O[C@H]2[C@H](O)[C@@H](O[C@H]3O[C@H](CO)[C@@H](O)[C@H](N)[C@H]3O)[C@H](N)C[C@@H]2N)[C@H](O)[C@@H](O)[C@@H]1O [kanamycin]
MIC S. aureus (S. aureus): 1 to 4 µg/mL
MIC E. faecalis (E. faecalis): 16 to 64 µg/mL

CC(=O)NC[C@H]1CN(c2ccc(N3CCOCC3)c(F)c2)C(=O)O1 [linezolid]
MIC S. aureus (S. aureus): 1 to 4 µg/mL
MIC E. faecalis (E. faecalis): 1 to 4 µg/mL

COc1cccc(OC)c1C(=O)N[C@@H]1C(=O)N2[C@@H]1SC(C)(C)[C@@H]2C(=O)O [methicillin]
MIC E. faecalis (E. faecalis): > 16 µg/mL

Cc1onc(-c2ccccc2)c1C(=O)N[C@@H]1C(=O)N2[C@@H]1SC(C)(C)[C@@H]2C(=O)O [oxacillin]
MIC MRSA (MRSA): 16 µg/mL (≈ 39.9 µM)

CCN1CCN(C(=O)N[C@@H](C(=O)N[C@@H]2C(=O)N3[C@@H]2SC(C)(C)[C@@H]3C(=O)O)c2ccccc2)C(=O)C1=O [piperacillin]
MIC S. aureus (S. aureus): 1 to 4 µg/mL
MIC E. faecalis (E. faecalis): 1 to 4 µg/mL
